In patent US11124519B2, “Cocrystal forms of ((1S,2S,4R)-4-{4-[(1S)-2,3-dihydro-1H-inden-1-ylamino]-7H-pyrrolo [2,3-d]pyrimidin-7-yl}-2-hydroxycyclopentyl) methyl sulfamate, formulations and uses thereof” (Millennium Pharmaceuticals, Inc., priority 2017, dated 2021):
Entries after “also recorded” stand apart in the source; their conditions may differ. Counter-ions that a name gives are not always drawn. Like-named read-outs stand apart in the source and are kept apart here. Marks after values point to notes of the source that are not given here.

What was measured:
[1] = Aqueous solubility estimate in water by solvent addition method; details: for Solubility Estimate: solvent addition method, visual assessment, rounded to nearest whole number
[2] = Chemical stability under temperature/humidity stress, HPLC purity at t=0 and t=14 days; details: for Purity after 60° C./75% RH, 2 weeks / Purity after 60° C./ambient RH, 2 weeks: HPLC; for Chemical stability under the stressed conditions (in words): 60° C./ambient RH and 60° C./75% RH; for Purity after 60° C./75% RH, 2 weeks / Chemical stability under the stressed conditions (in words) / Purity after 60° C./ambient RH, 2 weeks: 2 weeks; for Purity T = 0: unstressed, t=0, HPLC
Experimental: (§1) High Performance Liquid Chromatography (HPLC): HPLC analyses were performed using an Agilent 1100 series liquid chromatograph equipped with a variable wavelength detector and binary pump for sequence file 552094, and a diode array detector and quaternary pump for the remaining sequences. […] Degasser and an autosampler (set to ˜5° C.) were equipped for all sequences. The chromatographic column was a 150×4.6 mm Aquasil C18 column with 3 μm packing (Thermo Scientific). The column temperature was set to 40° C., and the detector wavelength was 280 nm with a bandwidth of 8 nm. The injection volume was 15 μL. Mobile phase A was 0.1% TFA in Water, and mobile phase B was 0.1% TFA in Acetonitrile. The flow rate used was 0.5 L/minute. Mobile phases were filtered and degassed through a 0.45 μm nylon filter under vacuum prior to use, except for Mobile phase A used in sequence file 554410 due to time constraints.
(§2) The physical and chemical stability of the glycolic acid, hippuric acid, malonic acid, and saccharin cocrystals were evaluated at two stress conditions (60° C./ambient relative humidity and 60° C./75% relative humidity) and compared to MLN4924 HCl salt.
(§3) Chemical stability was assessed via HPLC analysis of samples at t=0 and t=14 days.

[3] = Physical stability on exposure to elevated relative humidity (deliquescence); format: physicochemical; details: RT
Description: Each cocrystal was also exposed to elevated relative humidity (first ˜75% RH, then ˜97% RH) for specified time periods (Table 20).

[4] = 2 weeks
Experimental: as §1, §2, §3

physchem = details: water, thermodynamic from solid
[5] = cited from earlier work
[6] = Physical stability under temperature/humidity stress, XRPD comparison of unstressed and stressed samples; format: physicochemical; details: 60° C./75% RH, 2 weeks; listed as MLN4924-HCl
Experimental: Physical stability was assessed by comparison of XRPD patterns of the unstressed and stressed samples.

[7] = listed as Hippuric acid (Form B)
[8] = listed as Glycolic acid (Form A)
[9] = listed as Malonic acid (Form M)

NS(=O)(=O)OC[C@@H]1C[C@@H](n2ccc3c(N[C@H]4CCc5ccccc54)ncnc32)C[C@@H]1O [Form B, ((1S,2S,4R)-4-{4-[(1S)-2,3-dihydro-1H-inden-1-ylamino]-7H-pyrrolo[2,3-d]pyrimidin-7-yl}-2-hydroxycyclopentyl)methyl sulfamate]
Solubility Estimate [1]: <1 mg/mL
Purity after 60° C./75% RH, 2 weeks [2, 7]: 93.9%
Chemical stability under the stressed conditions (in words) ([2]; listed as hippuric acid cocrystal): little decomposition; also recorded: improvement in stability over the current MLN4924 HCl form
Purity after 60° C./ambient RH, 2 weeks [2, 7]: 94.1%
Purity T = 0 [2, 7]: 94.4%
Observations After Stress ([3]; ~75% RH stress, ~3 days): Free flowing solids
Observations After Stress ([3]; ~97% RH stress, ~2 days): Free flowing solids

NS(=O)(=O)OC[C@@H]1C[C@@H](n2ccc3c(N[C@H]4CCc5ccccc54)ncnc32)C[C@@H]1O [Form L, ((1S,2S,4R)-4-{4-[(1S)-2,3-dihydro-1H-inden-1-ylamino]-7H-pyrrolo[2,3-d]pyrimidin-7-yl}-2-hydroxycyclopentyl)methyl sulfamate]
Observations After Stress ([3]; ~75% RH stress, ~4 days): Free flowing solids
Observations After Stress ([3]; ~97% RH stress, ~1 day): Free flowing solids

NS(=O)(=O)OC[C@@H]1C[C@@H](n2ccc3c(N[C@H]4CCc5ccccc54)ncnc32)C[C@@H]1O [Form J, ((1S,2S,4R)-4-{4-[(1S)-2,3-dihydro-1H-inden-1-ylamino]-7H-pyrrolo[2,3-d]pyrimidin-7-yl}-2-hydroxycyclopentyl)methyl sulfamate]
Observations After Stress ([3]; ~75% RH stress, ~3 days): Free flowing solids
Observations After Stress ([3]; ~97% RH stress, ~2 days): Free flowing solids

NS(=O)(=O)OC[C@@H]1C[C@@H](n2ccc3c(N[C@H]4CCc5ccccc54)ncnc32)C[C@@H]1O [Form F, ((1S,2S,4R)-4-{4-[(1S)-2,3-dihydro-1H-inden-1-ylamino]-7H-pyrrolo[2,3-d]pyrimidin-7-yl}-2-hydroxycyclopentyl)methyl sulfamate]
Chemical stability under the stressed conditions (in words) [4]: improvement in stability over the current MLN4924 HCl form
Purity after 60° C./75% RH, 2 weeks ([2]; listed as Saccharin (Form F)): 91.0%
Purity after 60° C./ambient RH, 2 weeks ([2]; listed as Saccharin (Form F)): 91.2%
Purity T = 0 ([2]; listed as Saccharin (Form F)): 91.2%
Purity T = 0 ([2]; listed as saccharin cocrystal): about 91%
Observations After Stress ([3]; ~75% RH stress, ~3 days): Free flowing solids
Observations After Stress ([3]; ~97% RH stress, ~2 days): Free flowing solids

NS(=O)(=O)OC[C@@H]1C[C@@H](n2ccc3c(N[C@H]4CCc5ccccc54)ncnc32)C[C@@H]1O [Form N, ((1S,2S,4R)-4-{4-[(1S)-2,3-dihydro-1H-inden-1-ylamino]-7H-pyrrolo[2,3-d]pyrimidin-7-yl}-2-hydroxycyclopentyl)methyl sulfamate]
Solubility Estimate [1]: <1^c mg/mL
Observations After Stress ([3]; ~75% RH stress, ~4 days): Free flowing solids
Observations After Stress ([3]; ~97% RH stress, ~1 day): Free flowing solids

NS(=O)(=O)OC[C@@H]1C[C@@H](n2ccc3c(N[C@H]4CCc5ccccc54)ncnc32)C[C@@H]1O [Form A, ((1S,2S,4R)-4-{4-[(1S)-2,3-dihydro-1H-inden-1-ylamino]-7H-pyrrolo[2,3-d]pyrimidin-7-yl}-2-hydroxycyclopentyl)methyl sulfamate]
Solubility Estimate [1]: <1^c mg/mL
Purity after 60° C./75% RH, 2 weeks [2, 8]: 93.0%
Chemical stability under the stressed conditions (in words) ([2]; listed as glycolic acid cocrystal): limited stability
Purity after 60° C./ambient RH, 2 weeks [2, 8]: 95.9%
Purity T = 0 [2, 8]: 96.9%
Observations After Stress ([3]; ~75% RH stress, ~3 days): Free flowing solids
Observations After Stress ([3]; ~97% RH stress, ~2 days): Free flowing solids

NS(=O)(=O)OC[C@@H]1C[C@@H](n2ccc3c(N[C@H]4CCc5ccccc54)ncnc32)C[C@@H]1O [Form H, ((1S,2S,4R)-4-{4-[(1S)-2,3-dihydro-1H-inden-1-ylamino]-7H-pyrrolo[2,3-d]pyrimidin-7-yl}-2-hydroxycyclopentyl)methyl sulfamate]
Observations After Stress ([3]; ~75% RH stress, ~3 days): Free flowing solids
Observations After Stress ([3]; ~97% RH stress, ~2 days): Free flowing solids
solubility (physchem): < 1000 µg/mL

NS(=O)(=O)OC[C@@H]1C[C@@H](n2ccc3c(N[C@H]4CCc5ccccc54)ncnc32)C[C@@H]1O [Form G, ((1S,2S,4R)-4-{4-[(1S)-2,3-dihydro-1H-inden-1-ylamino]-7H-pyrrolo[2,3-d]pyrimidin-7-yl}-2-hydroxycyclopentyl)methyl sulfamate]
Observations After Stress ([3]; ~75% RH stress, ~3 days): Free flowing solids
Observations After Stress ([3]; ~97% RH stress, ~2 days): Slightly tacky solids
Observations After Stress ([3]; ~97% RH stress, ~2 days, listed as solvated piperazine cocrystal): slightly tacky

NS(=O)(=O)OC[C@@H]1C[C@@H](n2ccc3c(N[C@H]4CCc5ccccc54)ncnc32)C[C@@H]1O [Form M, ((1S,2S,4R)-4-{4-[(1S)-2,3-dihydro-1H-inden-1-ylamino]-7H-pyrrolo[2,3-d]pyrimidin-7-yl}-2-hydroxycyclopentyl)methyl sulfamate]
solubility ([1]; thermodynamic from solid): < 1000 µg/mL
Purity after 60° C./75% RH, 2 weeks [2, 9]: 99.0%
Chemical stability under the stressed conditions (in words) ([2]; listed as malonic acid): highest final purity
Chemical stability under the stressed conditions (in words) ([2]; listed as malonic acid cocrystal): little decomposition; also recorded: improvement in stability over the current MLN4924 HCl form
Purity after 60° C./ambient RH, 2 weeks [2, 9]: 99.1%
Purity T = 0 [2, 9]: 99.0%
Purity T = 0 ([2]; listed as malonic acid): highest initial purity
Observations After Stress ([3]; ~75% RH stress, ~4 days): Free flowing solids
Observations After Stress ([3]; ~97% RH stress, ~1 day): Free flowing solids

NS(=O)(=O)OC[C@@H]1C[C@@H](n2ccc3c(N[C@H]4CCc5ccccc54)ncnc32)C[C@@H]1O [HCl, ((1S,2S,4R)-4-{4-[(1S)-2,3-dihydro-1H-inden-1-ylamino]-7H-pyrrolo[2,3-d]pyrimidin-7-yl}-2-hydroxycyclopentyl)methyl sulfamate, reference compound]
Chemical stability during accelerated stress condition [5]: limited chemical stability
Form change (XRPD) [6]: new unique crystalline XRPD pattern
Purity after 60° C./75% RH, 2 weeks [2]: 96.6%
Chemical stability under the stressed conditions (in words) ([2]; listed as MLN4924-HCl): limited stability
Purity after 60° C./ambient RH, 2 weeks [2]: 94.6%
Purity T = 0 [2]: 98.2%
